Source: patent US20140005271A1, “PHARMACEUTICAL COMPOSITION FOR PREVENTING OR TREATING INFLAMMATORY DISEASES OR INFECTIOUS DISEASES, CONTAINING m-3M3FBS, WHICH IS ACTIVATOR OF PHOSPHOLIPASE C, AS ACTIVE INGREDIENT” (priority 2011, published 2014)

Columns and labels:
mouse neutrophils [1] = experiment: Production of H2O2 in neutrophils; format: cell-based
Description: Neutrophils of mice were isolated from peripheral blood using Histopaque-1077 solvent (Sigma), and neutrophils isolated from a normal mouse were stimulated by treating various concentrations of m-3M3FBS for 10 minutes in the presence of cytochalasin B (5 μm). […] H2O2 obtained from a supernatant was analyzed using H2O2 Molecular Probes.

CLP mouse models = experiment: Survival/mortality of CLP (cecal ligation and puncture) sepsis mice; format: in vivo; settings: for effect on the m-3M3FBS-induced survival rate: treated within the period of injecting m-3M3FBS, 1.5 mg/kg, FIG. 1C
Description: (§1) Male WT ICR mice were used as test models. All tests involving animals were performed according to the guidelines, and received the approval of Institutional Review Committee for Animal Care and Use from Dong-a University. For cecal ligation and puncture (CLP), the mice were anesthetized by intraperitoneal injection of pentothal sodium (50 mg/kg), and the cecum was exposed through midline incision of the abdomen. The cecum was ligated at a terminal end of the ileocecal valve, and the surface was perforated twice, or once to measure cytokine production using a 22-gauge needle, and the abdomen was closed. The control (sham) CLP mice underwent the same process as described above, but the cecum was not ligated or punctured.

[2] = tested on: mouse neutrophils with opsonized E. coli; experiment: Microbicidal action of neutrophils on ingested opsonized E. coli; format: cell-based
Description: Neutrophils were incubated for 1 hour at a 13-mm plastic cover slip on a 60-mm plastic petri dish (1×10^6 neutrophils/cover slip) at 37° C. Unattached neutrophils were removed by PBS washing, and the attached neutrophils were incubated with 10^6 of opsonized E. coli for 20 minutes. Microbes ingested by neutrophils were incubated for 30 minutes at various concentrations of m-3M3FBS or vehicles, and changes of the microbes before and after incubation were examined. A percentage of dead microbes was calculated by 100×(1−the number of CFU after m-3M3FBS stimulation/the number of CFU before m-3M3FBS stimulation).

[3] = tested on: bacteria in the peritoneal fluid; experiment: In vivo microbicidal action: bacterial colonies (CFU) in peritoneal lavage fluid after CLP; design: species or system mouse; settings: 1.5 mg/kg; 24 hours after CLP; FIG. 3A
Description: 24 hours after the CLP, peritoneal lavage fluid was harvested, and was incubated overnight in a blood-agar base plate (Trypticase Soy Agar Deeps, Becton Dickinson) at 37° C. CFUs were estimated by counting bacteria colonies formed in the blood-agar base plate (Trypticase Soy Agar Deeps, Becton Dickinson).

caspase-3 = experiment: Immunostaining of fragmented caspase-3 in splenocytes of CLP mice; design: species or system mouse; settings: 1.5 mg/kg in vivo; FIG. 4D
Description: Immunostaining was performed on the paraffin-embedded tissue fragments. The fragments were incubated with primary antibodies (Cell Signal transduction) in response to fragmented capase-3, and stained with fluorescent pigment-fused secondary antibodies.

lung of the CLP mouse = experiment: Inflammation of the lung in CLP mice (hematoxylin and eosin staining, W/D weight ratio); format: in vivo; settings: 1.5 mg/kg
Description: The degree of pulmonary edema was identified by measuring a wet-to-dry (W/D) ratio of the lung. The wet weight of the harvested cells was measured, and the cells were placed in an oven at 60° C. for 48 hours, and the dry weight of the cells was measured, thereby obtaining the W/D ratio.
2 hours after the mice underwent CLP, PBS or m-3M3FBS was administered at a concentration of 1.5 mg/kg. 24 hours after the surgery, the mice were euthanized, and the lung was fixed, cut, and stained with hematoxylin and eosin to perform morphological analysis.

splenocytes = experiment: TUNEL assay of CLP-induced apoptosis; format: in vivo, mouse; settings: 1.5 mg/kg; FIG. 4C
Description: The TUNEL assay was performed on tissue fragments embedded in paraffin, and the fragments were subjected to permeation of Triton X-100 at 4° C. for 2 minutes, and immersed in a TdT enzyme and a digoxigenin-dUTP reaction buffer (TUNEL) reagent for 60 minutes at 37° C. A percentage of apoptotic cells (TUNEL-positive cells) was determined by counting 500 splenocytes, which were observed using an optical microscope.

[4] = tested on: thymocytes and splenocytes; experiment: CLP-induced apoptosis of thymocytes and splenocytes (H&E staining, counting of living cells); format: in vivo, mouse; settings: 1.5 mg/kg; 24 hours; FIGS. 4A and B
Description: as §1

splenocytes of mice = experiment: Direct in vitro production of IFN-γ and IL-12 by ELISA; format: cell-based, mouse; settings: various concentrations, 3 hours
[5] = tested on: cytokines in the peritoneal fluid; experiment: CLP-induced cytokines in peritoneal fluid by ELISA; format: in vivo, mouse; settings: 1.5 mg/kg, 4 to 72 hours after CLP
Description: To detect production of CLP-inducing cytokines in peritoneal lavage fluid, m-3M3FBS was treated 2, 14, 26, or 38 hours after CLP. The peritoneal lavage fluid was harvested at various points of time from 4 to 72 hours after the CLP, and expression of cytokines in the peritoneal fluid was detected by ELISA (BD Biosciences Pharmingen).

mouse neutrophils [6] = experiment: LPS-induced proinflammatory cytokine secretion in neutrophils by ELISA; format: cell-based; settings: LPS 100 ng/ml, m-3M3FBS 10 μM, versus LPS alone
Description: Mouse neutrophils (3×10^6 cells/0.3 ml) were incubated in a 24-well plate containing 10% FBS-contained RPMI 1640 medium, and placed in 5% CO2 incubator at 37° C. Then, the neutrophils were incubated with LPS (100 ng/ml) for 6 hours in the presence or absence of m-3M3FBS (10 μM). The LPS (100 ng/ml) was treated to the cells after 30 minutes, the cell-free supernatant was harvested by centrifugation, and the production of IL-1 or TNF-α was detected by ELISA (BD Biosciences Pharmingen) according to the manufacturer's instructions.

## COc1ccc2c(c1)CC[C@@H]1[C@@H]2CC[C@]2(C)[C@@H](NCCCCCCN3C(=O)C=CC3=O)CC[C@@H]12 [U-73122, reference compound]
Mouse neutrophils [1]; neutrophils preincubated with the inhibitor (10 μm), FIG. 3E
  effect on m-3M3FBS-induced production of H2O2: significantly decreased
CLP mouse models
  effect on the m-3M3FBS-induced survival rate: completely prevented the increase in the m-3M3FBS-induced survival rate
[2]; neutrophils preincubated with the inhibitor (10 μM), then m-3M3FBS added, FIG. 3C
  effect on m-3M3FBS-induced microbicidal action: completely prevented

## COc1ccc2c(c1)CC[C@@H]1[C@@H]2CC[C@]2(C)[C@@H](NCCCCCCN3C(=O)CCC3=O)CC[C@@H]12 [U-73343, reference compound]
CLP mouse models
  effect on the m-3M3FBS-induced survival rate: did not

## Cc1cc(C)c(S(=O)(=O)Nc2cccc(C(F)(F)F)c2)c(C)c1 [m-3M3FBS]
[3]
  decrease in number of colonies of bacteria in the abdominal cavity: 55%
Mouse neutrophils [1]; 1 to 50 μm m-3M3FBS, FIG. 3D
  production of H2O2 in the neutrophils: increased the production of H2O2 in the neutrophils in a direction proportional to the concentration
caspase-3
  activation of CLP-induced caspase-3: significantly inhibited
Lung of the CLP mouse; 24 hours after CLP, FIG. 2B
  W/D weight ratio of the lung: significantly decreased
Lung of the CLP mouse; hematoxylin and eosin staining 24 hours after surgery, FIG. 2A
  lung inflammation symptoms (congestion, extensive thrombotic lesions): significantly decreased
splenocytes
  CLP-induced apoptosis by DNA fragmentation assay (TUNEL): significantly inhibited
CLP mouse models; 1.5 mg/kg 2 hours after CLP, further three or four times at 12 hour intervals, FIG. 1B
  survival rate by injection frequency: significantly improved
CLP mouse models; 0.9 or 1.5 mg/kg injected, FIG. 1A
  survival rate of the mice compared to vehicle-injected control: significantly increased
CLP mouse models; various concentrations injected after CLP, FIG. 1A
  mortality of the mice after CLP: significant decrease in the mortality
[2]; 1 to 50 μm m-3M3FBS, FIG. 3B
  microbicidal action of the neutrophils: significantly increased in a direction proportional to the concentration
[4]
  CLP-induced apoptosis of the thymocytes and splenocytes: significantly inhibited
Splenocytes of mice; FIG. 6D
  production of IFN-γ: increased
Splenocytes of mice; FIG. 6E
  production of IL-12: increased
[5]; FIG. 5A
  level of IL-1β in peritoneal fluid: significantly decreased
[5]; FIG. 5B
  level of TNF-α in peritoneal fluid: significantly decreased
[5]; FIG. 5C
  level of IL-12p70 in peritoneal fluid: significantly increased
[5]; FIG. 5D
  level of IFN-γ in peritoneal fluid: significantly increased
Mouse neutrophils [6]; FIG. 6A
  level of IL-1β after LPS treatment: decreased
Mouse neutrophils [6]; FIG. 6B
  level of TNF-α after LPS treatment: decreased
Mouse neutrophils [6]; FIG. 6C
  level of IL-6 after LPS treatment: decreased
